The record followed here is patent US11464770B2, “Anticancer pharmaceutical composition” (NATIONAL CANCER CENTER, priority 2016, dated 2022).

Each structure is given as a SMILES string. Read-outs that look alike come from different tables or passages of the source. Where only a bound is given, the exact number is not on record here.

Test [1] deals with prostate cancer cell lines (e.g. DU145/TXR). Nature of the test: Cell based assay, cell viability (CellTiter-Glo), prostate cancer cell lines. The note with it: Homo sapiens, 72 hours treatment, final concentration 0 to 2 μM. The procedure, abridged:
(§1)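 Seed cells after trypsin-EDTA treatment, hold 24 h at constant temperature, then add compound to a final 0 to 2 μM. Culture 72 h more and measure viability via ATP detection.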
(In general: ATP-based viability assays read luminescence as a measure of living cells.)

Another test has as its system renal cancer cell lines. Nature of the test: Cell based assay, cell viability (CellTiter-Glo), renal cancer cell lines. The note with it: Homo sapiens; ACHN cells. The procedure, abridged:
as §1

Setting [2] is: CWR22 cells, read-out: IC50, prostate cancer cell line CWR22.
[3] abbreviates: DU-145, DU145/TXR cells, read-out: IC50, prostate cancer cell line DU145/TXR.
The mark [4] stands for this setting: DU-145, DU145 cells, read-out: IC50, prostate cancer cell line DU145.
Where [5] appears, read: LNcap cells, read-out: IC50, prostate cancer cell line LNcap.
The mark [6] stands for this setting: PC-3 cells, read-out: IC50, prostate cancer cell line PC-3.

In the case of `COc1cc(S(F)(F)(F)(F)F)ccc1C[S+]([O-])c1[nH]c2c(Br)ccc(Cl)c2c(=O)c1C(C)=O` (stereo not drawn) [Compound 75, 3-acetyl-8-bromo-5-chloro-2-((2-methoxy-4-(pentafluoro--sulfanyl)benzyl)sulfinyl)quinolin-4(1H)-one], the IC50 in test [1] (setting [2]) was 1880 nM; in test [1] (setting [3]), 1030 nM; in test [1] (setting [4]) it was 1020 nM; in test [1] (setting [5]), greater than 2000 nM; in test [1] (setting [6]), 1440 nM; in the test with renal cancer cell lines it was greater than 2000 nM.

Consider `COC(=O)c1ccc(C[S+]([O-])c2[nH]c3c(Cl)ccc(Cl)c3c(=O)c2C(C)=O)o1` (stereo not drawn) [Compound 89, methyl 5-(((3-acetyl-5,8-dichloro-4-oxo-1,4-dihydroquinolin-2-yl)sulfinyl)methyl)furan-2-carboxylate], for which the IC50 in test [1] (setting [2]) is greater than 2000 nM; in test [1] (setting [3]), 1960 nM; in test [1] (setting [4]) it was greater than 2000 nM; in test [1] (setting [5]), greater than 2000 nM; in test [1] (setting [6]), greater than 2000 nM; in the test with renal cancer cell lines, greater than 2000 nM.

As for `CC(=O)c1c([S+]([O-])Cc2c(F)c(F)c(F)c(F)c2F)[nH]c2c(Br)ccc(Cl)c2c1=O` (stereo not drawn) [Compound 78, 3-acetyl-8-bromo-5-chloro-2-(((perfluorophenyl)methyl)sulfinyl)quinolin-4(1H)-one], the IC50 in test [1] (setting [2]) is greater than 2000 nM; in test [1] (setting [3]), 1380 nM; in test [1] (setting [4]), 1150 nM; in test [1] (setting [5]), greater than 2000 nM; in test [1] (setting [6]) it was 1530 nM; in the test on renal cancer cell lines, greater than 2000 nM.

For the molecule `Cc1cc(C[S+]([O-])c2[nH]c3c(Cl)ccc(Cl)c3c(=O)c2C(=O)C(C)C)no1` (stereo not drawn) [Compound 86, 5,8-dichloro-3-isobutyryl-2-(((5-methylisoxazol-3-yl)methyl)sulfinyl)quinolin-4(1H)-one], the IC50 is 1260 nM in test [1] (setting [2]); 1110 nM in test [1] (setting [3]); 1310 nM in test [1] (setting [4]); greater than 2000 nM in test [1] (setting [5]); 1670 nM in test [1] (setting [6]); 1330 nM with renal cancer cell lines.
